Test results as given in paper PMC2678990, “Stilbene glycosides are natural product inhibitors of FGF-2-induced angiogenesis” (BMC Cell Biology, 2009).

Columns and labels:
FGFR-1 (Homo sapiens) = system: T1, FGFR-1 (Homo sapiens); experiment: ELISA binding assay of FGF-2 to soluble receptor; conditions: added together with FGF-2, no pre-incubation
T1 construct: coated overnight with 2 μg/ml of the soluble receptors (FGFR-1 or -2 and VEGFR-1 or -2); purchased Santa Cruz Biotechnology (receptor); R&D Systems (FGF-2)
Protocol: (§1) Figure 8 The effect of increasing concentrations of compound 1 on FGF-2 binding to FGFR-1 and -2. The soluble receptor was coated onto the wells of a 96-well plate and blocked with 1% BSA. […] After 2 h the plate was washed and incubated with antibodies to the growth factor, then peroxidase-conjugated IgG for 45 min. Peroxidase substrate was added and the absorbance read at 405 nm (se below for detail).
(§2) Competition between growth factors, their cell surface receptors and test compounds was assessed in an ELISA assay as described by. A 96-well plate was coated overnight with 2 μg/ml of the soluble receptors (FGFR-1 or -2 and VEGFR-1 or -2) and blocked with 1% BSA in PBS containing 0.05% Tween-20. […] The plate was washed (× 3 with PBS-Tween-20) and incubated with anti-FGF-2 IgG (1:500 in PBS-Tween-20) or anti-VEGF IgG (!:250 in PBS-Tween-20) for 45 min, washed and incubated with horseradish peroxidase conjugated goat anti-IgG (Santa Cruz, 1:1000) for a further 45 min. After washing (× 3), ABTS peroxidase substrate was added and the absorbance read at 405 nm. IC50 values were calculated from the data using the EZ-Fit enzyme kinetic software (Perella Scientific Inc., Amherst, USA).

FGFR-2 (Homo sapiens) = system: T2, FGFR-2 (Homo sapiens); experiment: ELISA binding assay of FGF-2 to soluble receptor; conditions: added together with FGF-2, no pre-incubation
T2 construct: coated overnight with 2 μg/ml of the soluble receptors (FGFR-1 or -2 and VEGFR-1 or -2); purchased Santa Cruz Biotechnology (receptor); R&D Systems (FGF-2)
Protocol: as §1, §2

T1 sequence (P09038 143-288): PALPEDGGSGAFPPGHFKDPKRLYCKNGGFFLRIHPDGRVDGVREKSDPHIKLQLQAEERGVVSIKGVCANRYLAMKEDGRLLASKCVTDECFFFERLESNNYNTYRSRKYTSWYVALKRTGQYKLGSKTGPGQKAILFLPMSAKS
T2 sequence (P09038 143-288): as above

## COc1cc(C=Cc2ccc(O)cc2)cc(OC2OC(COC3OC(C)C(O)C(O)C3O)C(O)C(O)C2OC2OC(C)C(O)C(O)C2O)c1 (centres unmarked) [Compound 1]
FGFR-1 (Homo sapiens)
  Effect on FGF-2 binding to FGFR-1 when added with FGF-2: no significant inhibitory effect
FGFR-2 (Homo sapiens)
  Effect on FGF-2 binding to FGFR-2 when added with FGF-2: no significant inhibitory effect
